In patent US7235549B2, “Benzamide, heteroarylamide and reverse amides” (Pfizer Inc., priority 2001, dated 2007):

melting point: 148 to 150 °C
SMILES: O=C(NCCc1ccccc1C(F)(F)F)c1cc(-n2ncc(=O)[nH]c2=O)ccc1Cl [Example 48, 2-Chloro-5-(3,5-dioxo-4,5-dihydro-3H-[1,2,4]triazin-2-yl)-N-[2-(2-trifluoromethyl-phenyl)-ethyl]-benzamide]
